Values of other authors as cited in patent US20070298069A1, “Medical devices for release of low solubility therapeutic agents” (Boston Scientific Scimed, Inc., priority 2006, published 2007).

System: most gram positive and gram negative aerobic and anaerobic bacteria, some yeast and fungi
Conditions: in most organisms tested

For `Oc1cc(Cl)ccc1Oc1ccc(Cl)cc1Cl` [triclosan], which MIC is on record?
Its MIC is < 0.3 ppm.
